Test results as given in publication PMC7725824, “Fused isoselenazolium salts suppress breast cancer cell growth by dramatic increase in pyruvate-dependent mitochondrial ROS production” (Scientific Reports, 2020).
Read-outs that look alike come from different tables or passages of the source.

What was measured:
HEKa = assay: Cytotoxicity assay (MTT), HEKa; format: cell-based, human; settings: normal cell line, 48 h, mean ± S.D., 3 experiments
Description: (§1) MCF-7 (human breast adenocarcinoma, estrogen-positive) and 4T1 (mouse carcinoma), as breast cancer cell lines, and H9C2 (rat cardiomyoblasts), NIH 3T3 (mouse fibroblasts), HEKa (primary human epidermal keratinocytes), MDCK (Madin-Darby Canine Kidney) cells, and A7r5 (rat vascular smooth muscle cells), as normal cell lines, were obtained from the American Type Culture Collection [ATCC] collection for use in the current study. All cell lines were cultured in Dulbecco's modified Eagle's medium (DMEM) containing 10% fetal bovine serum (FBS) and 4 mM L-glutamine at 37 °C and 5% CO2.
(§2) Cell viability was assessed by the addition of 3-(4,5-dimethylthiazol-2-yl)-2,5-diphenyltetrazolinium bromide (MTT). Briefly, cells were seeded (2–6 × 10^4 cells/ml) in 96-well plates and allowed to attach for 24 h. Solutions of test compounds were prepared and serially diluted to obtain the appropriate concentrations. The cells were treated with the test compounds at different concentrations (0.032–100 µM) and incubated for 48 h at 37 °C and 5% CO2. Then, the culture medium was removed, and medium containing 0.2 mg/ml MTT was added. After 3 h (37 °C, 5% CO2), the MTT-containing medium was removed, and 200 μl of dimethyl sulfoxide (DMSO) was immediately added to each sample. The absorbance was assessed at 540 nm using a Tecan multiplate reader Infinite 1000 (Austria). The half-maximal inhibitory concentration (IC50) of each compound was calculated using Graph Pad Prism 3.0.

MCF-7 = assay: Cytotoxicity assay (MTT), MCF-7; format: cell-based, human; settings: read-out: Cytotoxicity, IC50, MCF-7
Description: as §1, §2

4T1 = assay: Cytotoxicity assay (MTT), 4T1; format: cell-based, mouse; settings: read-out: Cytotoxicity, IC50, 4T1
Description: as §1, §2

A7r5 = assay: Cytotoxicity assay (MTT), A7r5; format: cell-based, rat; settings: normal cell line, 48 h, mean ± S.D., 3 experiments
Description: as §1, §2

MDCK = assay: Cytotoxicity assay (MTT), MDCK; format: cell-based, Canine; settings: normal cell line, 48 h, mean ± S.D., 3 experiments
Description: as §1, §2

NIH 3T3 = assay: Cytotoxicity assay (MTT), 3T3; format: cell-based, mouse; settings: normal cell line, 48 h, mean ± S.D., 3 experiments
Description: as §1, §2

H9C2 = assay: Cytotoxicity assay (MTT), H9C2; format: cell-based, rat; settings: for IC50: normal cell line, MTT, 48 h, mean ± S.D., 3 experiments
Description: as §1, §2

[1] = Cytotoxicity assay (MTT), HEKa; format: cell-based, human; settings: human, normal cell line, mean ± S.D., 3 experiments
Description: as §1, §2

MCF-7 cells [2] = assay: Fluorometric measurement of NMN level; format: cell-based, human; settings: 2 μM, 10 min, vs control
Description: For fluorometric measurements of NMN, a previously described method was used, with minor modifications. […] The cells were washed with PBS and then lysed by adding 200 μl of 1 M HClO4 to each well and incubating at 4 °C for 20 min. The cells were harvested by scraping and transferred to a tube. The extracts were neutralized with 100 μl of 2 M KOH for 5 min at room temperature and 50 μl of 0.1 M bicine (pH 7.4) was added. The samples were centrifuged at 14 000 × g for 10 min at 4 °C, and the supernatant was collected for further analysis. The protein concentration in each sample was determined using a Bio-Rad protein assay kit. […] The reaction was incubated for 2 min at 4 °C, after which 45 μl of 88% formic acid was added, and the samples were incubated for another 10 min at 37 °C on a shaker. The fluorescence was measured using a Tecan multiplate reader Infinite 1000 (Austria) with excitation at 382 nm and emission at […].

[3] = Cytotoxicity assay (MTT), A7r5; format: cell-based, rat; settings: rat, normal cell line, mean ± S.D., 3 experiments
Description: as §1, §2

MCF-7 cells [4] = assay: NAD+/NADH assay kit measurement; format: cell-based, human; settings: 2 μM, 10 min
Description: The NAD^+/NADH ratio in the MCF-7 cells exposed to the test compounds (2 μM) for 10 min was measured using an NAD^+/NADH assay kit (Abcam, ab65348) according to the manufacturer's instructions.

[5] = Cytotoxicity assay (MTT), MDCK; format: cell-based, Canine; settings: dog, normal cell line, mean ± S.D., 3 experiments
Description: as §1, §2

permeabilized 4T1 cells = assay: High-resolution fluorespirometry (respiration and H2O2 flux); format: cell-based, mouse; settings: 1 µM, pyruvate-dependent OXPHOS state
Description: High-resolution fluorespirometry was performed using an Oxygraph-2 k system (OROBOROS INSTRUMENTS, Austria). All experiments were performed at 37 °C in MiR05 medium (110 mM sucrose, 60 mM K-lactobionate, 0.5 mM EGTA, 3 mM MgCl2, 20 mM taurine, 10 mM KH2PO4, 20 mM HEPES, pH 7.1 at 30 °C, and 0.1% BSA essentially fatty acid free). The medium was reoxygenated when the oxygen concentration dropped to 80 µM. H2O2 flux was simultaneously measured with respirometry in the O2k-Fluorometer using the H2O2-sensitive probe Ampliflu Red (AmR) as described. The H2O2/O flux ratio [%] was calculated as the H2O2 flux/(0.5 O2 flux).
In permeabilized 4T1 cells, pyruvate + malate (5 and 2 mM) or glutamate + malate (10 and 2 mM) were used to determine complex I (CI)-linked LEAK (L) respiration. ADP was added to a concentration of 5 mM to determine the oxidative phosphorylation-dependent respiration (OXPHOS state). Succinate (10 mM, complex II (CII) substrate) was then added to reconstitute convergent CI&II-linked respiration. Rotenone (0.5 µM, an inhibitor of complex I) and antimycin A (2.5 µM, an inhibitor of complex III) were added to determine the CII-linked OXPHOS capacity and residual oxygen consumption (ROX), respectively. Compound 6 was added to permeabilized cells after the addition of the respective substrates in the OXPHOS state (titration experiment) or in the LEAK state. In addition, compounds 3, 6 and 7 were tested at 1 µM in the OXPHOS coupling protocol in the LEAK state. The OXPHOS coupling efficiency was calculated as: 1-Resp.rateLEAKstate/Resp.rateOXPHOSstate
The substrate-dependent flux control factor was calculated as: 1-Resp.ratebeforeadditionofrespectivesubstrate/Resp.rateafteradditionofrespectivesubstrate

[6] = Cytotoxicity assay (MTT), 3T3; format: cell-based, mouse; settings: mouse, normal cell line, mean ± S.D., 3 experiments
Description: as §1, §2

[7] = Cytotoxicity assay (MTT), H9C2; format: cell-based, rat; settings: rat, normal cell line, MTT, 48 h, mean ± S.D., 3 experiments
Description: as §1, §2

[8] = breast cancer cell line, MTT, 48 h, mean ± S.D., 3 experiments

“3-bromo-2-(2-hydroxy-2-methylethyl)-[1,2]selenazolo[2,3-a]pyridinium chloride [Compound 1]” gave an IC50 (HEKa) of 2310 ± 20 nM, an IC50 (MCF-7; [8]) of 3100 ± 30 nM and an IC50 (4T1; [8]) of 300 ± 30 nM. It also gave an IC50 (A7r5) of 2890 ± 420 nM, an IC50 (MDCK) of 3260 ± 400 nM and an IC50 (NIH 3T3) of 130 ± 20 nM. It also gave an IC50 (H9C2) of 1800 ± 100 nM.

In the case of `Cn1cc[n+]2[se]c(C3(O)CCCCC3)c(Br)c12` [Compound 7, 3-bromo-N-methyl-2-(1-hydroxycyclohexyl)[1,2]selenazolo[2,3-b]imidazolium bromide], the IC50 at 48 h [1] is reported as 2190 ± 90 nM, the “decrease in NMN levels” value (MCF-7 cells [2]) is reported as “not” and the IC50 (MCF-7; Homo sapiens, MCF7, 48 h) is reported as 1480 ± 20 nM. For the same compound, the IC50 (4T1; Mus musculus, 4T1, 48 h) was 940 ± 60 nM, the IC50 at 48 h [3] was 1660 ± 250 nM and the “NAD+/NADH ratio higher than in untreated cells” value (MCF-7 cells [4]) was 1.65 times. The “decrease in NAD+ level” value (MCF-7 cells [4]; vs control) was “without affecting”, the “decrease in NADH level” value (MCF-7 cells [4]; vs control) was “induced a decrease” and the IC50 at 48 h [5] was 4280 ± 340 nM. The “increase in H2O2/O ratio” value (permeabilized 4T1 cells) was “immediate significant increases”, the “increase in H2O2 production” value (permeabilized 4T1 cells) was “immediate significant increases” and the IC50 at 48 h [6] was 2200 ± 300 nM. For the same compound, the IC50 at 48 h [7] was 670 ± 20 nM.

For `COc1cccc2c1C(=O)c1c(O)c3c(c(O)c1C2=O)C[C@@](O)(C(=O)CO)C[C@@H]3O[C@H]1C[C@H](N)[C@H](O)[C@H](C)O1` [Doxorubicin, reference compound], the IC50 (MCF-7; Homo sapiens, MCF7, breast cancer cell line, MTT, 48 h, mean ± S.D., 3 experiments) was 1000 ± 300 nM, the IC50 (4T1; Mus musculus, 4T1, breast cancer cell line, MTT, 48 h, mean ± S.D., 3 experiments) was 160 ± 60 nM and the IC50 at 48 h ([3]; A7r5 cells (vascular smooth muscle cells)) was 1820 ± 350 nM. The IC50 at 48 h ([5]; MDCK cells) was 57000 ± 6100 nM, the IC50 at 48 h ([6]; NIH 3T3 cells (fibroblasts)) was 750 ± 90 nM and the “IC50 values in tumor cells versus cardiomyocytes, fold lower” value (H9C2; tumor cells versus cardiomyocytes) was 10–100 fold. For the same compound, the IC50 at 48 h ([7]; H9C2 cells (cardiomyoblasts)) was 11000 ± 1000 nM.

In the case of `O=[Se](O)O` [Na2SeO3, Sodium selenite, reference compound], the IC50 (HEKa) is reported as 13300 ± 1100 nM, the IC50 (MCF-7; [8]) is reported as 17100 ± 2400 nM and the IC50 (4T1; [8]) is reported as 4900 ± 600 nM. The IC50 (A7r5) was 39400 ± 8200 nM, the IC50 (MDCK) was 6300 ± 400 nM and the IC50 (NIH 3T3) was 22300 ± 3600 nM. The IC50 (H9C2) was 1500 ± 300 nM.
